Like-named read-outs stand apart in the source and are kept apart here.
Legend:
[1] = tested on: LLC cells; test: transwell migration and Matrigel invasion, LLC; type: cell-based, murine; conditions: 24 h; for succinate-induced LLC migration: succinate with test agent
Protocol: (§1) Transwell migration and invasion assays are performed. Relative ability of migration or invasion is calculated from 3 fields under a light microscope. […] Migration assays and Matrigel invasion assay are then performed with PDGF-BB as a chemoattractant and migrated cell counts expressed as fold of basal controls.
(§2) LLC and A549 lung cancer cells are treated with different concentrations of HIF-1α specific inhibitors, and cell migration is assessed in a transwell assay. […] Prolyl hydroxylase (PHD) controls HIF-1α protein stability by hydroxylation of two conserved proline residues in HIF-1α thereby accelerating its degradation. […] Cell lysates are immunoblotted with antibodies specific for E-cadherin, Vimentin, or […]-actin.

[2] = tested on: A549; test: transwell migration and Matrigel invasion, A549; type: cell-based, human; conditions: 24 h; for succinate-induced A549 migration: succinate with test agent
Protocol: as §1
(§3) The cells are lysed, and the cell lysates are immunoblotted with antibodies specific for E-cadherin, N-cadherin, vimentin, or β-actin.
as §2

[3] = tested on: A549 cells; test: EMT marker immunoblot in A549 cells; type: cell-based, human
Protocol: as §3, §2

[4] = tested on: HIF-1α; test: kinase phosphorylation and HIF-1α expression in A549 cells; type: cell-based, human; conditions: for HIF-1α expression: A549/shNC cells, succinate 1 mM or DMS 20 mM, 12 h, qPCR
Protocol: MAPK-, phosphatidylinositol 3-kinase (PI3K)-AKT-mTOR-, and AMP-activated protein kinase (AMPK)-mediated hypoxia-inducible factor-1α (HIF-1α) upregulation plays critical roles in macrophage activation and cancer progression. Therefore, it is investigated that whether these signaling molecules mediate the succinate actions. […] Using selective kinase inhibitors, LLC cells are treated with different concentrations of LY294002 or SB202190 for 12 h, and Hif-1α mRNA is measured. […] To understand the role of SUCNR1 in driving HIF-1α expression, the expression level of HIF-1α in A549/shSUCNR1 is determined.

[5] = tested on: SUCNR1; conditions: succinate 1 mM, 2 h
[6] = tested on: HIF-1α; test: kinase phosphorylation and HIF-1α expression in LLC cells; type: cell-based, murine; conditions: succinate 1 mM
[7] = tested on: HT-29; test: transwell migration and Matrigel invasion, HT-29; type: cell-based, human; conditions: HT-29, different concentrations of succinate, 24 h
Protocol: (§4) Transwell migration and invasion assays are performed.
(§5) Succinate-induced migration of LLC, A549, PC3 and HT-29 cells is blocked by anti-SUCNR1 antibody but not control IgG antibody (FIG. 23A).

[8] = tested on: MCF-7; conditions: MCF-7, different concentrations of succinate, 24 h
Protocol: as §1

[9] = tested on: SUCNR1; conditions: A549, succinate 1 mM
[10] = tested on: PC3; test: transwell migration and Matrigel invasion, PC3; type: cell-based, human; conditions: PC3, different concentrations of succinate, 24 h
Protocol: as §4, §5

[11] = tested on: LLC
Description: The subcutaneous primary tumors are surgically removed after 3 weeks and mice are kept for another 2 weeks at which time animals are sacrificed.

[12] = tested on: peritoneal macrophages; test: peritoneal macrophage transwell migration (A549-CM, succinate, anti-SUCNR1); type: cell-based, mouse; conditions: succinate vs control
Protocol: The peritoneal macrophages are seeded on the upper chamber of transwell plates and cultured with control medium (DMEM) or CM from A549 (A549-CM) for 24 h. […] As shown in FIGS. 18A and 18B, A549-CM and A549-SCM increase macrophage migration compared with the control medium, which is abrogated by anti-SUCNR1 antibody but not control IgG.

[13] = tested on: LLC; conditions: succinate 20 and 100 mg/kg i.p. twice a week for 3 weeks vs saline
Protocol: (§6) On day 21, primary subcutaneous tumors are harvested, and percentage of TAMs is analyzed.

[14] = tested on: mouse peritoneal macrophages
Protocol: as §6

[15] = tested on: peritoneal macrophages; test: succinate-induced peritoneal macrophage migration with anti-succinate antibodies, transwell; type: cell-based, mouse; conditions: succinate 1 mM, 24 h
Protocol: (§7) VCAM1^+CD11c^+CD11b^low-TAM population is quantified by flow cytometry and normalized to the cell number of control medium treatment. […] The LLC cells are subcutaneously injected into C57BL/6J mice. The mice with an average 50 mm^3 subcutaneous tumors (8 day after LLC tumor inoculation) receive intraperitoneal injections of 6G10F6 monoclonal antibody (1 and 5 mg/kg) or IgG control antibody (5 mg/kg), twice a week for 5 weeks. The subcutaneous tumors are surgically removed 3 weeks after LLC injection for the assessment of TAM polarization; the lung, liver, spleen, and adrenal gland are excised from mice 2 weeks after removal of the primary tumor for the determination of tumor metastasis.

[16] = tested on: LLC; test: syngeneic murine LLC tumor model treated with 6G10F6 monoclonal antibody
Protocol: as §7

[17] = tested on: PMϕs; test: VCAM1+CD11c+CD11b low-TAM population in succinate-stimulated PMϕs, flow cytometry; type: cell-based, mouse; conditions: pre-treated 1 h, succinate 1 mM 3 days
Protocol: as §7

[18] = succinate 20 and 100 mg/kg i.p. twice a week vs saline

**Q.** Which results are given for `COc1cc2c(cc1O)CC[C@@H]1[C@@H]2CC[C@]2(C)[C@@H](O)CC[C@@H]12` [2-MeOE2]?
**A.** succinate-induced LLC migration [1]: inhibit succinate-mediated migration of LLC and A549 in a dose-dependent manner; succinate-induced A549 migration [2]: inhibit succinate-mediated migration of LLC and A549 in a dose-dependent manner

**Q.** What does the source list for `Cc1cc(-c2nc(-c3ccc(OC(F)(F)F)cc3)no2)nn1Cc1ccnc(N2CCN(C3CC3)CC2)c1` [Bay 87-2243]?
**A.** succinate-induced LLC migration [1]: inhibit succinate-mediated migration of LLC and A549 in a dose-dependent manner; succinate-mediated vimentin augmentation and E-cadherin reduction ([3]; pretreated 1 h, succinate 1 mM 24 h): suppresses; succinate-induced A549 migration [2]: inhibit succinate-mediated migration of LLC and A549 in a dose-dependent manner

**Q.** How did the “succinate-induced A549 migration” value [2] turn out when `COC(=O)CNC(=O)C(=O)OC` [DMOG, dimethyloxalyl glycine] was run?
**A.** increases

**Q.** Which HIF-1α expression [4] does the source give for `COC(=O)CCC(=O)OC` [DMS, dimethyl-ester succinate, reference compound] here?
**A.** results in elevation of HIF-1α

**Q.** With `CN(C)C(=N)N=C(N)N` [metformin] as the molecule, how does the “succinate-induced A549 migration” value [2] read?
**A.** abolish

**Q.** How did the “cell migration and invasion” value ([1]; LLC, different concentrations of succinate) turn out when `O=C(O)CCC(=O)O` [succinate] was run?
**A.** promotes cell migration and invasion

**Q.** And the “PGE2 released into the medium” value ([5]; LLC stably transfected with control shRNA)?
**A.** increased

**Q.** And the “intracellular Ca2+” value ([5]; LLC)?
**A.** increased

**Q.** What about the “HIF-1α protein and mRNA expression” value [6] of the same molecule?
**A.** increases HIF-1α protein

**Q.** And the “phosphorylation of p38 MAPK, AKT, and AMPK” value [6]?
**A.** induces phosphorylation of p38 MAPK, AKT, and AMPK in a time-dependent manner

**Q.** What about the “cell migration and invasion” value [7] of the same molecule?
**A.** promotes cell migration and invasion

**Q.** What about the “cell migration and invasion” value [8] of the same molecule?
**A.** promotes cell migration and invasion

**Q.** And the “phosphorylated ERK1/2” value [9]?
**A.** rapid rise of phosphorylated ERK1/2 at 2 min

**Q.** And the “intracellular Ca2+” value ([9]; 2 h)?
**A.** increased

**Q.** What about the “cell migration and invasion” value [10] of the same molecule?
**A.** promotes cell migration and invasion

**Q.** What about the “HIF-1α protein and mRNA expression” value ([4]; A549, succinate 1 mM) of the same molecule?
**A.** increases HIF-1α protein

**Q.** And the “phosphorylation of p38 MAPK, AKT, and AMPK” value ([4]; A549, succinate 1 mM)?
**A.** induces phosphorylation of p38 MAPK, AKT, and AMPK in a time-dependent manner

**Q.** What about the HIF-1α expression [4] of the same molecule?
**A.** Up-regulation of HIF-1α is observed

**Q.** And the “E-cadherin, N-cadherin and vimentin levels” value ([3]; succinate 0.5, 1, 2.5 mM 24 h, 1 mM time course)?
**A.** suppresses E-cadherin and increased N-cadherin and vimentin in a concentration and time-dependent manner

**Q.** And the “metastatic cancer nodules in liver and spleen” value [11, 18]?
**A.** similarly higher

**Q.** What about the “metastatic cancer nodules in lungs” value [11, 18] of the same molecule?
**A.** higher in mice receiving succinate (in a dose-dependent manner) than in mice receiving saline

**Q.** What about the “incidence of adrenal metastasis” value ([11]; succinate-treated vs saline, p=0.088) of the same molecule?
**A.** higher in succinate-treated animal, but the difference does not reach statistical significance

**Q.** And the macrophage migration [12]?
**A.** dramatically increase macrophage migration

**Q.** And the “cell migration and invasion” value ([2]; A549, different concentrations of succinate)?
**A.** promotes cell migration and invasion

**Q.** And the “VCAM1+CD11c+CD11b low-TAMs in primary subcutaneous tumors” value [13]?
**A.** significantly higher number

**Q.** What about the ARG1 protein expression ([14]; different concentrations of succinate, 24 h) of the same molecule?
**A.** increases the expression of ARG1 protein in mouse peritoneal macrophages in a concentration-dependent manner

**Q.** What about the “TAM marker gene expression (Arg1, Fizz1, Mgl1, Mgl2 mRNA)” value ([14]; qPCR, 24 h) of the same molecule?
**A.** raises the expression of TAM marker gene

**Q.** What about the “TAM surface markers CD11c and VCAM1” value ([14]; succinate 1 mM, 3 days, flow cytometry) of the same molecule?
**A.** up-regulates TAM surface markers

**Q.** `O=C(O)CCC(=O)C(=O)O` [α-KG, α-ketoglutarate] was tested. Which “succinate-induced A549 migration” value [2] did it give?
**A.** reduces

B1: 6G10F6: mouse monoclonal anti-succinate antibody, heavy chain SEQ ID NO: 2, light chain SEQ ID NO: 4 (antibody, V domains shown)
VH: MRVLILLWLFTAFPGILSDVQLQESGPGLVKPSQSLSLTCTVTGYSITSDYAWNWFRQFPGNKLEWMGYTSYSGSTSYNPSLKSRISITRNTSKNQIFLQLNSVTPEDTATYYCAREVTTFGYFDYWGQGTTLTVSS
VL: MAWTSLILSLLALCSGASSQAVVTQESALTTSPGGTVILTCRSSTGAVTTSNYANWVQEKPDHLFTGLIGGTSNRAPGVPVRFSGSLIGDKAALTITGAQTEDDAMYFCALWYSTHYVLGGGTKVTVL
modifications: Heavy chain of 6G10F6 Antibody; Light chain of 6G10F6 antibody
**Q.** Which results are given for B1?
**A.** succinate-induced macrophage migration [15]: suppresses; survival of LLC tumor-bearing mice ([16]; 1 and 5 mg/kg i.p.): significantly prolongs the survival; lung tumor multiplicities ([16]; 1 and 5 mg/kg i.p. twice a week for 5 weeks, vs saline): significantly suppresses; TAM population in subcutaneous tumors ([16]; 1 and 5 mg/kg i.p. twice a week, vs saline): significantly suppresses; succinate up-regulated TAM surface markers CD11c and VCAM1 [17]: suppresses

Source: US12559574B2 (National Health Research Institutes, priority 2019, dated 2026)
